One compound from ChEMBL document CHEMBL5230089, “Small-Molecule Fms-like Tyrosine Kinase 3 Inhibitors: An Attractive and Efficient Method for the Treatment of Acute Myeloid Leukemia” (J Med Chem, 2020) can be followed below.

Test [1] addresses Receptor-type tyrosine-protein kinase FLT3 (Homo sapiens, UniProt P36888, ITD).
A further test has as its system MV4-11. Description: Antiproliferative activity against human MV4-11 cells assessed as cell growth inhibition measured after 48 hrs by cell titer glo assay. Format: functional, cell-based. The note with it: MV4-11, 48 h. Background: ATP-based viability assays read luminescence as a measure of living cells.

Chain of Receptor-type tyrosine-protein kinase FLT3 (P36888 whole entry, looked up, stated change not applied): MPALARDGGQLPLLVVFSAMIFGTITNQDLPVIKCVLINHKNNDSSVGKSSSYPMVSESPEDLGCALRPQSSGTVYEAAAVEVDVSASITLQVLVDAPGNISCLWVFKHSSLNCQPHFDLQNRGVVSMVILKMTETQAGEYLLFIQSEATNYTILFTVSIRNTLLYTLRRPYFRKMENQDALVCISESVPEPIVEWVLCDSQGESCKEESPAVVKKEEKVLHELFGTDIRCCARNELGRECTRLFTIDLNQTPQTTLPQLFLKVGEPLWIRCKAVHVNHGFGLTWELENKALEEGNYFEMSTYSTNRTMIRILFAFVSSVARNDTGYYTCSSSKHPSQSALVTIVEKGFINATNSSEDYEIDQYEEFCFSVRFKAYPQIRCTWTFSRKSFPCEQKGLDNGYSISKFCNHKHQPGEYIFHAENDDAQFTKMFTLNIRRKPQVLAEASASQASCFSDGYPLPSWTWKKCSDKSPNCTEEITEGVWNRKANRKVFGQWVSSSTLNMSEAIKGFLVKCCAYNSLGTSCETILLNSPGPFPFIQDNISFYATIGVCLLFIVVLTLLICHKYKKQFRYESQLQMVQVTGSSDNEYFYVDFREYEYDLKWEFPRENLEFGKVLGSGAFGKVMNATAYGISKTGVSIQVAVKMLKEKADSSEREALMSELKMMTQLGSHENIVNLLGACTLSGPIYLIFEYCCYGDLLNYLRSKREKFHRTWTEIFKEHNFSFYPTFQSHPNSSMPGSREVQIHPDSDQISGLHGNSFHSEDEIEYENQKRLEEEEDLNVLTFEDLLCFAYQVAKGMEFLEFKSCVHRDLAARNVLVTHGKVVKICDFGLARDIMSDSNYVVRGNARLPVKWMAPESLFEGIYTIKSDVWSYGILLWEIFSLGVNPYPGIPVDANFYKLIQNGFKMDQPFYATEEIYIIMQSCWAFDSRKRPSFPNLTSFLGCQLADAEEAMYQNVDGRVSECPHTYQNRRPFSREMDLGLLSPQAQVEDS

`COc1cc(Nc2nc3cccc(-c4cccc(C(N)=O)c4)c3o2)ccc1N1CCNCC1`: the IC50 (usually the point on the concentration scale where inhibition reaches its midpoint) in test [1] was found to be 0.41 nM; in the test on MV4-11 it was 37 nM.
